Measurements reported in the supplement of paper PMC7840683.
Structures can show the parent of a compound that is named as a salt.

System: HepaRG
Experiment: LDH release cytotoxicity, % of total lysis control; higher = more cytotoxic
Details: 48 h
Outline: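 Eight-point half-log series of test chemicals, the highest at 100 µM, were given in duplicate for 48 h to single-lot HepaRG cells on collagen I-coated 96-well plates in serum-free induction medium with 0.5% DMSO. A Tecan Safire read resorufin fluorescence from CytoTox-ONE as a measure of LDH in 50 µL spent medium, with 0.1% Triton X in total lysis wells. Percent cytotoxicity was normalized to on-plate vehicle and total lysis controls and averaged over the duplicates.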

CCc1cc(SCc2sc(-c3ccc(C(F)(F)F)cc3)nc2CN2CCN(c3ccc(OC)cc3)CC2)ccc1OCC(=O)O
Details	LDH release cytotoxicity [%]
0.03162 µM	-1.41
0.1 µM	-1.04
0.3162278 µM	-0.879
1 µM	-1.49
3.16228 µM	-2.29
10 µM	21
31.6228 µM	70.2
100 µM	84

CC(O)CC(C)(C)O (stereo not drawn) [2-Methyl-2,4-pentanediol]
Details	LDH release cytotoxicity [%]
0.03162 µM	-1.84
0.1 µM	-2.18
0.3162278 µM	-2.81
1 µM	-2.8
3.16228 µM	-2.62
10 µM	-2.46
31.6228 µM	-2.69
100 µM	-0.649

Clc1ccc(C(Cl)(Cl)Cl)cc1 [4-Chlorobenzotrichloride]
Details	LDH release cytotoxicity [%]
0.03162 µM	-1.85
0.1 µM	-1.72
0.3162278 µM	-2.4
1 µM	-1.68
3.16228 µM	-1.91
10 µM	-1.134
31.6228 µM	-0.341
100 µM	27.7

O=C(OC[C@H]1O[C@@H](OC(=O)c2cc(O)c(O)c(OC(=O)c3cc(O)c(O)c(O)c3)c2)[C@H](OC(=O)c2cc(O)c(O)c(OC(=O)c3cc(O)c(O)c(O)c3)c2)[C@@H](OC(=O)c2cc(O)c(O)c(OC(=O)c3cc(O)c(O)c(O)c3)c2)[C@@H]1OC(=O)c1cc(O)c(O)c(OC(=O)c2cc(O)c(O)c(O)c2)c1)c1cc(O)c(O)c(OC(=O)c2cc(O)c(O)c(O)c2)c1 [Tannic acid]
Details	LDH release cytotoxicity [%]
0.0096449 µM	-1.06
0.0305 µM	-1.19
0.0964495 µM	-2.39
0.305 µM	-2.34
0.964495 µM	-3.92
3.05 µM	-4.5
9.64495 µM	-0.0405
30.5 µM	5.317

C=CC(=O)NCNC(=O)C=C [N,N'-Methylenebisacrylamide]
Details	LDH release cytotoxicity [%]
0.03162 µM	-0.744
0.1 µM	-0.797
0.3162278 µM	-0.644
1 µM	-1.4
3.16228 µM	-0.3
10 µM	-0.328
31.6228 µM	-0.405
100 µM	1.88

CCCCCCCCCC[N+](C)(C)CCCCCCCCCC [Didecyldimethylammonium chloride]
Details	LDH release cytotoxicity [%]
0.0317809 µM	-1.08
0.1005 µM	-0.913
0.317809 µM	-0.501
1.005 µM	-2.08
3.17809 µM	-0.414
10.05 µM	0.276
31.7809 µM	0.202
100.5 µM	1.33

ClC1=C(Cl)C2(Cl)C3C4C=CC(C4)C3C1(Cl)C2(Cl)Cl (stereo not drawn) [Aldrin]
Details	LDH release cytotoxicity [%]
0.03162 µM	-1.03
0.1 µM	-1.22
0.3162278 µM	-1.42
1 µM	-2.25
3.16228 µM	-1.19
10 µM	-0.76
31.6228 µM	-1.01
100 µM	3.93

N#CC(Br)(Br)C(N)=O [2,2-Dibromo-3-nitrilopropionamide]
Details	LDH release cytotoxicity [%]
0.0314647 µM	-1.52
0.0995 µM	-0.658
0.3146466 µM	-0.437
0.995 µM	-0.589
3.14647 µM	0.314
9.95 µM	0.381
31.4647 µM	-0.137
99.5 µM	1.42

Cc1occc1C(=O)Nc1ccc(C(=O)N2CCC(F)(F)/C(=C\C(=O)N3CCC(N4CCCCC4)CC3)c3ccccc32)cc1 [YM218]
Details	LDH release cytotoxicity [%]
0.01976 µM	-1.36
0.0625 µM	-1.93
0.197642 µM	-3.13
0.625 µM	-2.977
1.976424 µM	-3.81
6.25 µM	-2.99
19.7642 µM	-1.84
62.5 µM	19.8

CCCCC(CC)CO (stereo not drawn) [2-Ethyl-1-hexanol]
Details	LDH release cytotoxicity [%]
0.0320971 µM	-0.547
0.1015 µM	-0.771
0.320971 µM	-0.413
1.015 µM	-0.597
3.2097118 µM	0.185
10.15 µM	0.421
32.0971 µM	0.242
101.5 µM	0.842

CN(C)CCOC(c1ccccc1)c1ccccc1 [Diphenhydramine hydrochloride]
Details	LDH release cytotoxicity [%]
0.03162 µM	-0.0757
0.1 µM	-1.04
0.3162278 µM	-0.977
1 µM	-1.8
3.16228 µM	-1.62
10 µM	-0.793
31.6228 µM	-0.772
100 µM	1.1

CON=C(C1=NOCCO1)c1ccccc1Oc1ncnc(Oc2ccccc2Cl)c1F [Fluoxastrobin]
Details	LDH release cytotoxicity [%]
0.03162 µM	-1.84
0.1 µM	-1.61
0.3162278 µM	-0.5866
1 µM	0.517
3.16228 µM	-0.886
10 µM	-0.0116
31.6228 µM	13.1
100 µM	33.8

CCCCN(CC)c1c([N+](=O)[O-])cc(C(F)(F)F)cc1[N+](=O)[O-] [Benfluralin]
Details	LDH release cytotoxicity [%]
0.031623 µM	-0.0474
0.1 µM	-1.73
0.316228 µM	-1.78
1 µM	-2.54
3.16228 µM	-2.56
10 µM	-1.12
31.6228 µM	-1.14
100 µM	-0.374

CCC(C)c1ccccc1O (stereo not drawn) [2-(Butan-2-yl)phenol]
Details	LDH release cytotoxicity [%]
0.031623 µM	-0.239
0.1 µM	-1.12
0.316228 µM	-2.25
1 µM	-2.96
3.16228 µM	-3.27
10 µM	-1.71
31.6228 µM	-1.22
100 µM	0.802

Clc1ccccc1C(c1ccccc1)(c1ccccc1)n1ccnc1 [Clotrimazole]
Details	LDH release cytotoxicity [%]
0.03162 µM	-0.964
0.1 µM	-0.87
0.3162278 µM	-1.49
1 µM	-1.36
3.16228 µM	-0.966
10 µM	4.28
31.6228 µM	11.6
100 µM	82.1

CC12CCC3c4ccc(O)cc4CC(CCCCCCCCCS(=O)CCCC(F)(F)C(F)(F)F)C3C1CCC2O (stereo not drawn) [Fulvestrant]
Details	LDH release cytotoxicity [%]
0.03162 µM	-1.87
0.1 µM	-1.62
0.3162278 µM	-0.633
1 µM	-1.01
3.16228 µM	-1.1
10 µM	-0.0401
31.6228 µM	-3.17
100 µM	3.92

O=C1c2c(O)cccc2Cc2cccc(O)c21 [Anthralin]
Details	LDH release cytotoxicity [%]
0.03162 µM	-2.38
0.1 µM	-0.784
0.3162278 µM	-1.25
1 µM	-0.891
3.16228 µM	-0.148
10 µM	-1.12
31.6228 µM	-0.933
100 µM	-0.256

CS(=O)(=O)NC(=O)c1cc(Oc2ccc(C(F)(F)F)cc2Cl)ccc1[N+](=O)[O-] [Fomesafen]
Details	LDH release cytotoxicity [%]
0.03162 µM	-1.12
0.1 µM	-1.48
0.3162278 µM	0.3
1 µM	-0.63
3.16228 µM	-0.773
10 µM	0.708
31.6228 µM	0.985
100 µM	3.41

COc1ccc(C(c2ccc(OC)cc2)C(Cl)(Cl)Cl)cc1 [Methoxychlor]
Details	LDH release cytotoxicity [%]
0.0314647 µM	-0.145
0.0995 µM	-0.434
0.3146466 µM	-0.0516
0.995 µM	0.115
3.14647 µM	0.0841
9.95 µM	-0.153
31.4647 µM	0.12
99.5 µM	17

CC(C)(O)c1ccc(CNC(=O)c2cccnc2Oc2ccc(F)cc2)cc1
Details	LDH release cytotoxicity [%]
0.03162 µM	-1.22
0.1 µM	-1.42
0.3162278 µM	-0.81
1 µM	-1.975
3.16228 µM	-0.936
10 µM	-0.88
31.6228 µM	-1.34
100 µM	-1.94

O=C(O)COc1nc(Cl)c(Cl)cc1Cl [Triclopyr]
Details	LDH release cytotoxicity [%]
0.03162 µM	-0.728
0.1 µM	-2.08
0.3162278 µM	-1.59
1 µM	-1.77
3.16228 µM	-1.2
10 µM	0.578
31.6228 µM	34.7
100 µM	45.6

CN(C)CCCN(C)CCCN(C)C [2,6,10-Trimethyl-2,6,10-triazaundecane]
Details	LDH release cytotoxicity [%]
0.03162 µM	-1.25
0.1 µM	-1.63
0.3162278 µM	-2.17
1 µM	-1.73
3.16228 µM	-1.82
10 µM	-1.78
31.6228 µM	-0.82
100 µM	-0.216

COC(=O)c1ccccc1C(=O)OC [Dimethyl phthalate]
Details	LDH release cytotoxicity [%]
0.03162 µM	-0.705
0.1 µM	-1.99
0.3162278 µM	-1.58
1 µM	-2.6
3.16228 µM	-1.11
10 µM	-0.678
31.6228 µM	-0.11
100 µM	1.18

FC(F)(F)C(F)(F)C(F)(F)C(F)(F)C(F)(F)C(F)(F)CCI [1H,1H,2H,2H-Perfluorooctyl iodide]
Details	LDH release cytotoxicity [%]
0.03162 µM	-2.1
0.1 µM	-1.68
0.3162278 µM	-1.96
1 µM	-2.44
3.16228 µM	-1.64
10 µM	-1.16
31.6228 µM	-0.32
100 µM	1

CC(C)COC(=O)c1ccccc1C(=O)OCC(C)C [Diisobutyl phthalate]
Details	LDH release cytotoxicity [%]
0.03162 µM	-2.33
0.1 µM	-2.4
0.3162278 µM	-2.25
1 µM	-2.06
3.16228 µM	-2.34
10 µM	-1.43
31.6228 µM	-2.53
100 µM	-1.03

Nc1ccc(Cl)cc1 [4-Chloroaniline]
Details	LDH release cytotoxicity [%]
0.03162 µM	-1.56
0.1 µM	-0.947
0.3162278 µM	-2.25
1 µM	-1.34
3.16228 µM	-0.444
10 µM	-1.71
31.6228 µM	-1.53
100 µM	0.243

CC(C)(O)c1cnn2c(-c3ccc(F)c(-c4c(F)cccc4C#N)c3)cnc2n1
Details	LDH release cytotoxicity [%]
0.03162 µM	-0.882
0.1 µM	-1.19
0.3162278 µM	-1.7
1 µM	-1.5
3.16228 µM	-1.51
10 µM	-1.39
31.6228 µM	1.16
100 µM	8.979

Clc1cc(Cl)c(Cl)cc1Cl [1,2,4,5-Tetrachlorobenzene]
Details	LDH release cytotoxicity [%]
0.03162 µM	-1.15
0.1 µM	-1.29
0.3162278 µM	-0.238
1 µM	-1.08
3.16228 µM	-0.932
10 µM	-0.175
31.6228 µM	-0.116
100 µM	1.14

CSC1=NC(C)(c2ccccc2)C(=O)N1Nc1ccccc1 (stereo not drawn) [Fenamidone]
Details	LDH release cytotoxicity [%]
0.03162 µM	-1.05
0.1 µM	-1.31
0.3162278 µM	-1.11
1 µM	-1.54
3.16228 µM	-1.63
10 µM	-2.26
31.6228 µM	6.59
100 µM	15.2

Cc1cc(C)c(O)c(C)c1 [2,4,6-Trimethylphenol]
Details	LDH release cytotoxicity [%]
0.03162 µM	-0.941
0.1 µM	-0.527
0.3162278 µM	-0.0601
1 µM	-1.16
3.16228 µM	-0.619
10 µM	-0.296
31.6228 µM	0.116
100 µM	0.371

O=C1CCCO1 [4-Butyrolactone]
Details	LDH release cytotoxicity [%]
0.03162 µM	-0.251
0.1 µM	-0.513
0.3162278 µM	-0.359
1 µM	-0.517
3.16228 µM	-0.65
10 µM	0.21
31.6228 µM	-0.668
100 µM	1.06

CCCN(CCC)c1c([N+](=O)[O-])cc(S(N)(=O)=O)cc1[N+](=O)[O-] [Oryzalin]
Details	LDH release cytotoxicity [%]
0.03162 µM	-2.37
0.1 µM	-2.04
0.3162278 µM	-0.725
1 µM	-1.89
3.16228 µM	-2.11
10 µM	-2.88
31.6228 µM	-1.72
100 µM	77.1

CCNc1nc(N)nc(Cl)n1 [Deisopropylatrazine]
Details	LDH release cytotoxicity [%]
0.03162 µM	-0.429
0.1 µM	-1.18
0.3162278 µM	-0.471
1 µM	-1.46
3.16228 µM	-0.314
10 µM	-0.765
31.6228 µM	-0.375
100 µM	0.373

CCCCOCCOCCOCc1cc2c(cc1CCC)OCO2 [Piperonyl butoxide]
Details	LDH release cytotoxicity [%]
0.031939 µM	-0.462
0.101 µM	-2.71
0.31939 µM	-2.69
1.01 µM	-3.07
3.1939 µM	-2.38
10.1 µM	-1.93
31.939 µM	-0.729
101 µM	4.54

O=C(OCCOCCOC(=O)c1ccccc1)c1ccccc1 [Diethylene glycol dibenzoate]
Details	LDH release cytotoxicity [%]
0.03162 µM	-0.909
0.1 µM	-1.337
0.3162278 µM	-0.774
1 µM	-1.03
3.16228 µM	-1.1
10 µM	-0.826
31.6228 µM	-1.09
100 µM	0.38

CCCCCCCCCCCCN1CCCC1=O [1-Dodecyl-2-pyrrolidinone]
Details	LDH release cytotoxicity [%]
0.031623 µM	-0.38
0.1 µM	-0.917
0.316228 µM	-3
1 µM	-2.75
3.16228 µM	-3.37
10 µM	-2.86
31.6228 µM	-2.4
100 µM	0.295
